Tests used:
[1] = Intrinsic clearance in human; assay type: ADME, organism-based; conditions: in vivo
[2] = Intrinsic clearance in rat; assay type: ADME, organism-based; conditions: in vivo

Row | Structure (SMILES) | CLint scaled [1] | CLint scaled [2]
1 | CCOC(=O)c1ccc(-c2nn(Cc3ccccc3)c3ccccc23)cc1 | 75 mL/min/kg | 1090 mL/min/kg
2 | Cn1c(CO)c(-c2ccccc2)c2cc([N+](=O)[O-])ccc21 | 157 mL/min/kg | 359 mL/min/kg
3 | CCOC(=O)c1ccc(-c2cn(Cc3ccccc3)c3ccccc23)cc1 | 77 mL/min/kg | 1160 mL/min/kg

Source: ChEMBL document CHEMBL3352238, “Substituted indoles as selective protease activated receptor 4 (PAR-4) antagonists: Discovery and SAR of ML354” (Bioorg Med Chem Lett, 2014)
